{"source": "patent US4885239A", "about": "“Rapid differentiation of bacteria using polyether antibiotics” (Eastman Kodak Company, priority 1986, dated 1989)", "key": {"S. aureus": {"test_system": "S. aureus", "assay": "dye formation from RIND VII in presence of calimycin, S. aureus", "format": "cell-based, Staphylococcus aureus (ATCC 25923)", "set-up": "key: 0: no dye formation; +/-: faint dye formation; 1+: light dye formation; 2+: moderate dye formation; 3+: strong dye formation; 4+: very strong dye formation", "settings": "calimycin 10^-3 molar, calcium chloride", "experimental": "(§1) gram-negative bacteria Enterobacter cloacae (ATCC 23355), Escherichia coli (ATCC 25922), Proteus vulgaris (ATCC 13315), Klebsiella pneumoniae (ATCC 13883) and Pseudomonas aeruginosa (ATCC 27853), and gram-positive bacteria Staphylococcus aureus (ATCC 25923) and Streptococcus pyogenes (ATCC 19615), and brain heart infusion (BHI) broth from Difco Laboratories (Detroit, Mich.),\n(§2) Bacterial suspensions were prepared by growing the cells in BHI to stationary phase overnight at 37° C. P. aeruginosa was grown with agitation. […]\n(§3) TERGITOL 7 anionic surfactant was used to differentiate viable bacteria according to the prior art method. […] The amount of dye formed was then determined visually and graded as follows: 0 indicates no dye formation, +/- indicates faint dye formation, 1+ indicates light dye formation, 2+ indicates moderate dye formation, 3+ indicates strong dye formation, and 4+ indicates very strong dye formation.\n(§4) Calimycin, a polyether antibiotic, was similarly used with RIND VII in the differentiation of bacteria. Assays were performed as described above, except that 25 μl of 1 molar calcium chloride solution was added to each test solution and the P. aeruginosa response was measured in the presence of 10% yeast extract as the carbon source instead of glucose. […]"}, "P. vulgaris": {"test_system": "P. vulgaris", "assay": "dye formation from RIND VII in presence of calimycin, P. vulgaris", "format": "cell-based, Proteus vulgaris (ATCC 13315)", "set-up": "key: 0: no dye formation; +/-: faint dye formation; 1+: light dye formation; 2+: moderate dye formation; 3+: strong dye formation; 4+: very strong dye formation", "settings": "calimycin 10^-3 molar, calcium chloride", "experimental": "as §1, §2, §3, §4"}, "E. coli": {"test_system": "E. coli", "assay": "dye formation from RIND VII in presence of calimycin, E. coli", "format": "cell-based, Escherichia coli (ATCC 25922)", "set-up": "key: 0: no dye formation; +/-: faint dye formation; 1+: light dye formation; 2+: moderate dye formation; 3+: strong dye formation; 4+: very strong dye formation", "settings": "calimycin 10^-3 molar, calcium chloride", "experimental": "as §1, §2, §3, §4"}, "S. aureus (gram +) [1]": {"test_system": "S. aureus (gram +)", "assay": "inhibition of the reduction of RIND XXXV in dry analytical element (Example 6), S. aureus", "format": "cell-based, Staphylococcus aureus (ATCC 25923)", "settings": "calcium chloride, 30 minutes, 37° C."}, "S. aureus (gram +) [2]": {"test_system": "S. aureus (gram +)", "assay": "change in relative fluorescence with water-compatible RIND XXXV (Example 4), S. aureus", "format": "cell-based, Staphylococcus aureus (ATCC 25923)", "settings": "37° C., without antibiotic 2667", "experimental": "as §1\n(§5) Bacterial suspensions were prepared by growing the cells in BHI to stationary phase overnight at 37° C. P. aeruginosa was grown with agitation. About 40 ml of overnight cultures were centrifuged, decanted and washed once with 0.05 molar potassium phosphate buffer or 0.05 molar N-2-hydroxyethylpiperazine-N'-2-ethanesulfonic acid (HEPES) buffer, pH 7.8, and resuspended in buffer.\nA dispersion containing a RIND compound was prepared by dissolving RIND VII from Table II above in N,N-dimethylformamide (DMF) at 16 mg compound per ml of solvent. An aliquot (250 μl) of the resulting solution was added to 500 μl of TRITON X-100 surfactant. This mixture was then added dropwise with stirring to 25 ml of 0.05 molar HEPES buffer. A solution containing a water-compatible RIND compound XXXV was prepared by dissolving the compound (16 mg/ml) in N,N-dimethylformamide which had been acidified with a 0.1% sulfuric acid solution.\nA solution was prepared from the following components: 100 μl RIND XXXV solution (16 mg/ml acidified N,N-dimethylformamide), 200 μl glucose solution (10% in water), 200 μl trimethyl-1,4-benzoquinone ETA solution (1.5 mg/ml methanol) and 10 ml HEPES buffer.\nTest solutions were prepared from the following reagents: 50 μl HEPES buffer, 50 μl polyether antibiotic A23187 (free acid, 0.01 molar in methanol), 10 μl calcium chloride solution (1 molar) (serial dilutions of buffer and antibiotic were performed to obtain various antibiotic concentrations), 50 μl of the appropriate cell suspensions (E. coli, about 10^8 cells/ml and S. aureus, about 10^8 cells/ml) and 200 μl of the RIND solution. Control solutions were prepared as described in Examples 2 and 3.\n(§6) Relative fluorescence was measured using a standard spectrophotometer modified to read at excitation of 540 nm and emission of 620 nm. The change (Δ) in relative fluorescence was determined after 30 minutes at 37° C. for several concentration levels of antibiotic."}, "[3]": {"test_system": "viable gram-positive and gram-negative bacteria", "assay": "differentiation of viable gram-positive and gram-negative bacteria (outcome in words)", "format": "cell-based", "settings": "RIND VII; calimycin 10^-3 molar", "experimental": "as §1, §5\nTERGITOL 7 anionic surfactant was used to differentiate viable bacteria according to the prior art method. Various concentrations of TERGITOL 7 surfactant were mixed with a 10% glucose solution (50 μl), 3-(4,5-dimethyl-2-thiazolyl)-2,5-diphenyl-2N-tetrazolium bromide (MTT) in methanol (25 μl at 5 mg/ml) or a RIND VII dispersion (1.5 ml) and phenazine methosulfate ETA (25 μl at 3 mg/ml methanol). The volume of each test solution was brought to 3 ml with potassium phosphate buffer. A cell suspension (100 μl at about 10^8 cells/ml) was then added. The solutions were incubated at 37° C. for 15 and 30 minutes in the presence of either E. coli, a gram (-) bacterium, or S. aureus, a gram (+) bacterium. The amount of dye formed was then determined visually and graded as follows: 0 indicates no dye formation, +/- indicates faint dye formation, 1+ indicates light dye formation, 2+ indicates moderate dye formation, 3+ indicates strong dye formation, and 4+ indicates very strong dye formation.\nCalimycin, a polyether antibiotic, was similarly used with RIND VII in the differentiation of bacteria. Assays were performed as described above, except that 25 μl of 1 molar calcium chloride solution was added to each test solution and the P. aeruginosa response was measured in the presence of 10% yeast extract as the carbon source instead of glucose. The final concentration of calimycin in each test was 10^-3 molar.\nThe test solutions were prepared by adding the following, in order: 1.2 ml HEPES, 50 μl glucose solution, 1.5 ml RIND VII dispersion, 100 μl antibiotic solution, 100 μl cell suspension and 25 μl ETA solution. Cell control solutions contained all reagents except antibiotics. Background Controls consisted of both buffer and solution controls. The buffer control contained all reagents except antibiotics and cells. The solution control contained all reagents except cells.\nOptical density readings (OD) were made at 635 nm at 0 minutes and after incubation at 37° C. for 30 minutes for all solutions, and the change (ΔOD) was determined. Table V below lists the results expressed as corrected percent inhibition of the reduction of RIND VII. The corrected percent inhibition was calculated by dividing the difference between ΔOD obtained from a Control test without antibiotic and the ΔOD of the test, by the ΔOD of the Control without antibiotic. All readings were corrected by subtracting readings of the appropriate background control.\nas §6\nOptical density measurements were obtained at 540 nm using a standard spectrophotometer and the change in optical density (ΔOD) was determined after 30 minutes at 37° C. The resulting data are shown in Table VII below for several concentrations of antibiotic. It is clear from the data that the composition of this example was useful for differentiating bacteria. […]"}}, "data": [{"smiles": "CNc1ccc2oc(C[C@H]3O[C@@]4(CC[C@H]3C)O[C@H]([C@H](C)C(=O)c3ccc[nH]3)[C@H](C)C[C@H]4C)nc2c1C(=O)O", "note": "[calimycin, Calimycin]", "values": [{"measurement": "dye formation", "setting": "S. aureus; 15 Minutes", "value": 0}, {"measurement": "dye formation", "setting": "S. aureus; 30 Minutes", "value": 0}, {"measurement": "dye formation", "setting": "P. vulgaris; 15 Minutes", "value": "4+"}, {"measurement": "dye formation", "setting": "P. vulgaris; 30 Minutes", "value": "4+"}, {"measurement": "dye formation", "setting": "E. coli; 15 Minutes", "value": "3+"}, {"measurement": "dye formation", "setting": "E. coli; 30 Minutes", "value": "4+"}, {"measurement": "Corrected Percent Inhibition", "setting": "S. aureus (gram +) [1]", "value": 70, "unit": "%"}, {"measurement": "Δ Relative Fluorescence after 30 Min.", "setting": "S. aureus (gram +) [2]; antibiotic 1 × 10^-4 molar", "value": 409}, {"measurement": "Δ Relative Fluorescence after 30 Min.", "setting": "S. aureus (gram +) [2]; antibiotic 2 × 10^-4 molar", "value": 362}, {"measurement": "Δ Relative Fluorescence after 30 Min.", "setting": "S. aureus (gram +) [2]; antibiotic 4 × 10^-4 molar", "value": 290}, {"measurement": "Δ Relative Fluorescence after 30 Min.", "setting": "S. aureus (gram +) [2]; antibiotic 8 × 10^-4 molar", "value": 345}, {"measurement": "inhibition of the reduction of the reducible compounds by viable gram-positive bacteria", "setting": "[3]", "value": "selectively and substantially inhibits the reduction of the reducible compounds"}, {"measurement": "reductive capability of the viable gram-negative bacteria", "setting": "[3]", "value": "not inhibited"}]}]}
